Where a chain is given by its changes, count along the chain named.
Key:
Type in all cases: cell-based
PTH1R‐V204E [1] = target: T1, PTH1R‐V204E (Homo sapiens, UniProt Q03431, V204E); assay: β-arrestin2-YFP recruitment by fluorescence microscopy in GBR-24 cells, ImageJ analysis; conditions: ligand 30nM
T1 construct: expressed in transfected cells; plasmid TG-928 made by VectorBuilder
T1 sequence (Q03431 27-593 E90Y/S91D/E92V/E93P/K95Y/E96A/V204E): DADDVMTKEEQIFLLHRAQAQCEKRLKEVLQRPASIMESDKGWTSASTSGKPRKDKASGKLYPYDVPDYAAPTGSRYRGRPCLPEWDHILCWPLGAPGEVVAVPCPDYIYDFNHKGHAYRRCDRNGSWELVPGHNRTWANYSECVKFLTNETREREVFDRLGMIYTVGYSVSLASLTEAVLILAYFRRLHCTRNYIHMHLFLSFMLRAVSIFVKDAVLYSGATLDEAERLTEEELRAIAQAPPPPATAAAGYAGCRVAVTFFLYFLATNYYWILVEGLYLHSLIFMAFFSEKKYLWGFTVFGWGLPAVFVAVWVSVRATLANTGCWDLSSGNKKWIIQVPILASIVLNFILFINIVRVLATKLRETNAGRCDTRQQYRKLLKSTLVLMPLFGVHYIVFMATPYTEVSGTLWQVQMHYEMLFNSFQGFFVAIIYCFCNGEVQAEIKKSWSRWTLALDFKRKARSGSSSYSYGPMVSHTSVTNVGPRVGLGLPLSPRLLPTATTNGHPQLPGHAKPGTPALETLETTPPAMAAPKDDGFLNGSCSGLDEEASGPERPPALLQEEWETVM
Procedure: (§1) Recruitment of β‐arrestin was assessed in GBR‐24 cells (HEK293/GloSensor (GS‐22A)‐derived cells stably expressing β‐arrestin2^YFP)^( [30] ^) that were transiently transfected to express PTH1R‐WT or a mutant derivative.
(§2) Fluorescent microscopy images were analyzed using ImageJ software, ver. […] The freehand tool was used to define the area analyzed for each cell, and the Measure>Analyze Particle tool was used to obtain the number of particles, the total area and the mean grayscale (intensity) of each particle for each cell. For each cell, the number of particles was divided by the total area to obtain the Particles/Total Area.

PTH1R‐P132L = target: T2, PTH1R‐P132L (Homo sapiens, UniProt Q03431, P132L); assay: as above; conditions: ligand 30nM
T2 construct: expressed in transfected cells; plasmid TG-395 in pCDNA1
T2 sequence (Q03431 27-593 E90Y/S91D/E92V/E93P/K95Y/E96A/P132L): T1 sequence (Q03431 27-593 E90Y/S91D/E92V/E93P/K95Y/E96A/V204E) with P106L, E178V
Procedure: as §1, §2

PTH1R‐R186H [2] = target: T3, PTH1R‐R186H (Homo sapiens, UniProt Q03431, R186H); assay: as above; conditions: ligand 30nM
T3 construct: expressed in transfected cells; plasmid TG-907 made by VectorBuilder
T3 sequence (Q03431 27-593 E90Y/S91D/E92V/E93P/K95Y/E96A/R186H): T1 sequence (Q03431 27-593 E90Y/S91D/E92V/E93P/K95Y/E96A/V204E) with R160H, E178V
Procedure: as §1, §2

PTH1R‐WT [3] = target: T4, PTH1R‐WT (Homo sapiens, UniProt Q03431); assay: as above; conditions: ligand 30nM
T4 construct: expressed in transfected cells; plasmid TG-906 made by VectorBuilder
T4 sequence (Q03431 27-593 E90Y/S91D/E92V/E93P/K95Y/E96A): T1 sequence (Q03431 27-593 E90Y/S91D/E92V/E93P/K95Y/E96A/V204E) with E178V
Procedure: as §1, §2

PTH1R‐V204E [4] = target: T1, PTH1R‐V204E; assay: Fluorescence microscopy of PTH(1-34)TMR-PTH1R complexes in GS-22a cells, ImageJ analysis; conditions: ligand 30nM, means of six cells, representative experiment
Procedure: (§3) PTH analog binding to WT and mutant PTH1Rs was assessed by fluorescence microscopy in transiently transfected GS‐22A cells as described.^( [30], [31] ^) Briefly, the cells were transfected in six‐well plates, reseeded at 24 hours onto coverslips in six‐well plates, and at 48 hours posttransfection processed for analysis. The plates were placed on ice and the cells on coverslips were rinsed with cold HB. Then 1.0 mL of HB was then added to each well, followed by Alexafluor‐488‐labeled mouse monoclonal anti‐HA immunoglobulin G (IgG) antibody (BioLegend; Cat. No. 901509) at a concentration of 1 μg/mL, and the plate was incubated at 4°C for 1 hour. […] The plate was then shifted to room temperature and incubations continued for 30 minutes. The mixtures were then removed, the cells were rinsed twice with HB, fixed for 5 minutes in 3.7% paraformaldehyde buffer (Boston BioProducts, Inc., Ashland, MA, USA; Cat. No. BM‐158), rinsed with HB, then mounted on a glass microscope slide in Vectashield media containing 4′,6‐diamidino‐2‐phenylindole (DAPI) (Vector Laboratories, Burlingame, CA, USA; Cat. No. H1500) and imaged at magnification ×400 using a Nikon Eclipse fluorescence microscope equipped with a CCD camera configured with SPOT imaging software (Nikon, Tokyo, Japan). Regions of interest were digitally expanded 5× or 7× in PowerPoint software (Microsoft Corp., Redmond, WA, USA).
as §2

PTH1R‐R186H [5] = target: T3, PTH1R‐R186H; assay: as above; conditions: ligand 30nM, means of six cells, representative experiment
Procedure: as §3, §2

PTH1R‐WT [6] = target: T4, PTH1R‐WT; assay: as above; conditions: ligand 30nM, 30 min 4°C then 30 min room temperature, means of six cells, representative experiment
Procedure: as §3, §2

[7] = GBR24 cells, means of six cells
[8] = GBR-24 cells, 30 min, a representative cell

tetramethylrhodamine (TMR)‐^ n L ^8,21‐rat‐PTH(1‐34) [PTH(1‐34)^TMR]
Particles/Total Area (βArrestinYFP-ligand complexes) (PTH1R‐V204E [1]; [7]): 496 ± 44
Pearson correlation coefficient (R), colocalization of ligand with β-arrestin2YFP (PTH1R‐V204E [1]; [8]): 0.69
Particles/Total Area (βArrestinYFP-ligand complexes) (PTH1R‐P132L; [7]): 223 ± 66
ligand binding and β-arrestin2YFP recruitment (microscopy signal) (PTH1R‐P132L; GBR-24 cells, 30 min (Fig. 4A)): Only faint signal
Particles/Total Area (βArrestinYFP-ligand complexes) (PTH1R‐R186H [2]; [7]): 603 ± 81
Pearson correlation coefficient (R), colocalization of ligand with β-arrestin2YFP (PTH1R‐R186H [2]; [8]): 0.86
Particles/Total Area (βArrestinYFP-ligand complexes) (PTH1R‐WT [3]; GBR24 cells, 30 min room temperature, means of six cells, representative experiment): 704 ± 22
Pearson correlation coefficient (R), colocalization of ligand with β-arrestin2YFP (PTH1R‐WT [3]; [8]): 0.97
Particles /Total Area (PTH1R‐V204E [4]): 826 ± 78
Particles /Total Area (PTH1R‐R186H [5]): 1162 ± 95
Particles /Total Area (PTH1R‐WT [6]): 1011 ± 57
